Assay [1] has as its target T1, human ETB (Homo sapiens, UniProt P24530).
T1 construct: expressed in transfected cells; host or cells: CHO (Chinese hamster ovary) cells, membrane preparation
T1 sequence (P24530 27-442): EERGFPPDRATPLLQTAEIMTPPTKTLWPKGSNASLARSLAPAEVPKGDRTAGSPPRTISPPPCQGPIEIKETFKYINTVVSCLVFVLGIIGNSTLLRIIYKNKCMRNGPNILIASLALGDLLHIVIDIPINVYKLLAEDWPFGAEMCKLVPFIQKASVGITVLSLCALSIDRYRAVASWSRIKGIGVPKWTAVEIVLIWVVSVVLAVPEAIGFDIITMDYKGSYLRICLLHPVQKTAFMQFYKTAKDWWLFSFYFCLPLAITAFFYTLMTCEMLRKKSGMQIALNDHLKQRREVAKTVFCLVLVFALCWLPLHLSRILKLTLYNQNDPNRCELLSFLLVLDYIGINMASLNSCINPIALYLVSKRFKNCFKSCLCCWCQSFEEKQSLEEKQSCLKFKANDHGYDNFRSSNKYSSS
The experiment in a line: Competition binding of [125I] ET-1 to CHO-ETB membranes. Particulars: [125I] ET-1, 2 hours at 37° C. The procedure: (§1) 1. Binding Studies--ETA and ETB ;
(§2) Chinese hamster ovary cells expressing human ETA (CHO-ETA) or ETB (CHO-ETB) receptors are cultured in F12 medium (cibcoBRL, Grand Island, N.Y.) containing 10% fetal bovine serum and 1× antibiotic-antimycotic (GibcoBRL). Cells are harvested, then centrifuged, and finally homogenized in buffer containing 1 mM EDTA and […] Tris, pH 8.0. The cell debris is removed by brief centrifugation, and then the supernatant centrifuged again at 50,000×g for 10 minutes. The resulting pellet is resuspended in Hanks' balanced salt solution at a protein concentration of […] and stored in aliquots at -80° C. Competition binding is carried out by in incubating 0.2-1.0 mg of membrane protein from CHO-ETA or CHO-ETB cells with 12,000 cpm [^125 I] ET-1 (New England Nuclear, Boston, Mass.) with or without the competing ligand for 2 hours at 37° C. in a buffer containing 0.2 mg/ml bovine serum albumin, 0.002% Triton X-100, 0.02% NaN3, and […] Tris, pH 7.0. The reaction is terminated by filtration through a cell harvester (Brandel, Gaitherburg, Md.) using GF/C filters. Triplicate samples are carried out in each experiment, and if appropriate, the full dose-response curve for each competing ligand is performed at least three times. […]

Assay [2] addresses T2, human ETA (Homo sapiens, UniProt P25101).
T2 construct: expressed in transfected cells; host or cells: CHO (Chinese hamster ovary) cells, membrane preparation
T2 sequence (P25101 21-427): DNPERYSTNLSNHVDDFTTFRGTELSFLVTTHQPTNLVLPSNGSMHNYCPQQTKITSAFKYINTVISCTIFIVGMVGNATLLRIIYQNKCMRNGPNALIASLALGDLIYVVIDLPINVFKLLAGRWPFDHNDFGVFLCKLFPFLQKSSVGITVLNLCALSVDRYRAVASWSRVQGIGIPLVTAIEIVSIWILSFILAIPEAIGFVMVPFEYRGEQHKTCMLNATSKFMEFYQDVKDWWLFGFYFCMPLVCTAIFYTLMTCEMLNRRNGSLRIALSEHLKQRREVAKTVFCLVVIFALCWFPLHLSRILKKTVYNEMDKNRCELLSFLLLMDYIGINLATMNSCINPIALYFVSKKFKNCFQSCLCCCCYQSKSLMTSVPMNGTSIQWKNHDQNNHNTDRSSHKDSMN
The experiment in a line: Competition binding of [125I] ET-1 to CHO-ETA membranes. Conditions: [125I] ET-1, 2 hours at 37° C. The procedure: as §1, §2

Assay [3] concerns the target T3, ETB (Canis lupus familiaris, UniProt P56497).
T3 construct: from tissue; host or cells: saphenous vein segments from mongrel dogs
T3 sequence (P56497 27-442): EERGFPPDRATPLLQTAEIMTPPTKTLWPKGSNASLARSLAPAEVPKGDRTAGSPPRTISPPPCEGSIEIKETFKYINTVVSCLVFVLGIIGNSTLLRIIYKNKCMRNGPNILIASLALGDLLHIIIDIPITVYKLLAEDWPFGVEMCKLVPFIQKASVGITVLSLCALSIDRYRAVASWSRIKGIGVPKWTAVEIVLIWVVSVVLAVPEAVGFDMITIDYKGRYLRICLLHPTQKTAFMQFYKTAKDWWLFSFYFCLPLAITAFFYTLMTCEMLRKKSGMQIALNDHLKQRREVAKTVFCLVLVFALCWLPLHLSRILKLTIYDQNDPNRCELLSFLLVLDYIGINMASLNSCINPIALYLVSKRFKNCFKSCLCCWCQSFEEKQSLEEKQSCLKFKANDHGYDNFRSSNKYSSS
Description: Isolated tissue study, isometric tension, dog saphenous veins. More on the design: species or system mongrel dogs. Particulars: antagonist added 30 minutes prior to ET-1 or STX6c. The protocol: (§3) 2. Isolated Tissue Studies
(§4) Studies measuring isometric tension are carried out according to the procedure of Shetty et al. (Biochem. Biophys. Res. Comm. 1993; 191:459-464). Saphenous veins (for antagonism of ETB) are obtained from mongrel dogs which are anesthetized with pentobarbital. Thoracic aortas are obtained from Sprague-Dawley male rats (for antagonism of ETA). Coronary arteries are obtained from porcine hearts. Tissue segments (4-5 mm) from each vascular preparation are equilibrated for 90 minutes during which time the tissues are adjusted to a preload tension of 2 gm, except for the porcine coronary which is adjusted to 4 gm preload. Concentration-response curves are generated by the cumulative addition of the peptides. Antagonists are added 30 minutes prior to the addition of ET-1 or STX6c. Contractions are expressed as a percentage of the response to […] KCl. Relaxation is quantitated by expressing the tension after relaxation as a percent of the tension induced by 1 mM phenylephrine.

Assay [4] concerns the target T4, ETA (Rattus norvegicus, UniProt P26684).
T4 construct: from tissue; host or cells: thoracic aorta segments from Sprague-Dawley male rats
T4 sequence (P26684 21-426): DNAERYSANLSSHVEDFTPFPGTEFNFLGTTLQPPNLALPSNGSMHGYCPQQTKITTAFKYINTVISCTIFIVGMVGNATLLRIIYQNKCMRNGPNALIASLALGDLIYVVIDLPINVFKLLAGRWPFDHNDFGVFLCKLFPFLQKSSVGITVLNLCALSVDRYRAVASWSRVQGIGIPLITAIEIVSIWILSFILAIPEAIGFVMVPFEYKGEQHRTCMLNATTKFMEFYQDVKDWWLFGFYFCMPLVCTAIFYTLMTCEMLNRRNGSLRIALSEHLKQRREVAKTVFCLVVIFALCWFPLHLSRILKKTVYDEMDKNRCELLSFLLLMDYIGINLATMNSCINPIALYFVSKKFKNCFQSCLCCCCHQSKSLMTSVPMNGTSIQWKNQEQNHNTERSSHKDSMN
Description: Isolated tissue study, isometric tension, thoracic aorta. More on the design: species or system Sprague-Dawley male rats. Conditions: antagonist added 30 minutes prior to ET-1 or STX6c. The procedure: as §3, §4

Where only a bound is given, the exact number is not on record here.

The IC50 is the concentration that inhibits the measured activity by half. The low end stands for greater potency, the high end for weaker potency.

Take `CCCCS(=O)(=O)NC(=O)C1(NC(=O)[C@@H](Cc2ccc(-n3cccc3)cc2)N(C)C(=O)c2cc(C)cc(C)c2)CC1` [example 1, R-N-[N-3,5-dimethylbenzoyl-N-methyl-3-[4-(1-pyrrolyl)phenyl]alanyl]-1-aminocyclo propane-1-N-(n-butanesulfonyl)carboxamide]: the IC50 in assay [1] and in assay [2] was less than 1 nM throughout. The “ET-induced contractile response in dog saphenous veins” value in assay [3] is recorded as “inhibit ET-induced contractile response”. Further, the “ET-induced contractile response in thoracic aorta” value in assay [4] is on record as “inhibit ET-induced contractile response”.

Values taken from US5977075A, “N-aroylamino acid amides as endothelin inhibitors” (Novartis AG, priority 1997, dated 1999).
